Literature values in patent US20230149402A1, “SOLID PHARMACEUTICAL PREPARATION, PREPARATION METHOD THEREFOR AND USE THEREOF” (SHANGHAI HAIYAN PHARMACEUTICAL TECHNOLOGY CO., LTD, priority 2020, published 2023).

Columns and labels:
hOX2R = target: T1, hOX2R (Homo sapiens, UniProt O43614); conditions: FLIPR, read-out: IC50, inhibitory effect on OX2 GPCR receptor
T1 sequence (O43614 1-444): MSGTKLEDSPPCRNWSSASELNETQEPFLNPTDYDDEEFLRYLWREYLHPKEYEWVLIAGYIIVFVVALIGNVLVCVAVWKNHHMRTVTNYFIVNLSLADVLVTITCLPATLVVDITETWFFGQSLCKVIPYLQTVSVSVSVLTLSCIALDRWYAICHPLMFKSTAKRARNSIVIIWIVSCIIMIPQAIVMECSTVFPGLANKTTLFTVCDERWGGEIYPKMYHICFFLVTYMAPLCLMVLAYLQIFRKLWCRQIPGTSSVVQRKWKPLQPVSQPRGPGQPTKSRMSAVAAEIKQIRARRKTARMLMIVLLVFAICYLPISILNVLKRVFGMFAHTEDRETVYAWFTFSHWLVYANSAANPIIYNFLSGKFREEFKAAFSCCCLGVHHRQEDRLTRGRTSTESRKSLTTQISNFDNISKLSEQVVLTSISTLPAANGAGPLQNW

hOX1R = target: T2, hOX1R (Homo sapiens, UniProt O43613); conditions: FLIPR, read-out: IC50, inhibitory effect on OX1 GPCR receptor
T2 sequence (O43613 1-425): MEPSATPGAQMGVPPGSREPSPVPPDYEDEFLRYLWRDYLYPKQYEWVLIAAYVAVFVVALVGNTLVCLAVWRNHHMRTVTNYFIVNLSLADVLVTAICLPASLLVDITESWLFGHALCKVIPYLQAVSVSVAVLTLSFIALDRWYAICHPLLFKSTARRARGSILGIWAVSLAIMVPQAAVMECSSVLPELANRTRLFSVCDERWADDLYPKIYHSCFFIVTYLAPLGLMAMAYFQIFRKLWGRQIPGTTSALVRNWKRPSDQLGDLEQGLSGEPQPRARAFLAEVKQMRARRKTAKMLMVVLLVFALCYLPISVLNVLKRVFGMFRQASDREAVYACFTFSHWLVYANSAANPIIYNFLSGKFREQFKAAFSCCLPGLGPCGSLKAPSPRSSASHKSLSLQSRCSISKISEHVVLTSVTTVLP

Q: With `Cc1ccc(-c2ncccn2)c(C(=O)N2[C@H]3CC[C@@H](COc4ccc(F)cn4)[C@@H]2CC3)c1` [compound of formula (II), ((1S,2R,5S)-2-(((5-fluoropyridin-2-yl)oxy)methyl)-8-azabicyclo[3.2.1]octan-8-yl)(5-methyl-2-(pyrimidin-2-yl)phenyl)methanone] as the molecule, how does the IC50 (hOX2R) read?
A: The IC50 was 36 nM.

Q: And the IC50 (hOX1R)?
A: Its IC50 is 20 nM.
